# Source: US20090274698A1, “Combination anti-cancer therapy” (priority 2007, published 2009)
# Columns and labels:
# pAkt = assay: Western blot of pAkt in a panel of cell lines from various tumor types; format: cell-based, human
# Protocol: (§1) Cell extracts were prepared by detergent lysis (50 mM Tris-HCl, pH 8.0, 150 mM NaCl, 1% NP-40, 0.5% sodium deoxycholate, 0.1% SDS, containing protease inhibitor (P8340, Sigma, St. Louis, Mo.) and phosphatase inhibitor (P5726, Sigma, St. Louis, Mo.) cocktails. The soluble protein concentration was determined by micro-BSA assay (Pierce, Rockford Ill.). Protein immunodetection was performed by electrophoretic transfer of SDS-PAGE separated proteins to nitrocellulose, incubation with antibody, and chemiluminescent second step detection (PicoWest; Pierce, Rockford, Ill.). The antibodies included: phospho-Akt(473), phospho-Akt(308), and total Akt. All antibodies were obtained from Cell Signaling Technology, Inc. (Danvers, Mass.). For analysis of an agent's effect on the phosphorylation of downstream signaling proteins, cell lines were grown to approximately 70% confluency, at which time the indicated agent was added at the indicated concentration, and cells were incubated at 37° C. for 24 hours. The media was removed, cells were washed two times with PBS, and cells were lysed as previously described.
# tumor cell lines = assay: Anti-proliferative activity across tumor cell lines (statement of the description); format: cell-based
# [1] = system: pAkt-S473 in ovarian carcinoma cell lines (Ovcar3, SKov3, MDAH 2774, CaOV3); assay: Western blot of phospho-Akt(S473) in ovarian carcinoma cell lines, cisplatin study (FIG. 8); details: 10 nM rapamycin, 20 μM Compound A, 30 μM cisplatin, 24 hours
# Protocol: Band density was determined and relative levels of phospho-Akt(S473) are expressed graphically relative to DMSO-treated control lysate. Four ovarian cell lines were assayed (A) Ovcar3, (B) SKov3, (C) MDAH 2774, (D) CaOV3.
# as §1
# MDA-MB-231 cells = assay: Apoptosis (Caspase 3/7 Glo) in MDA-MB-231 cells; format: cell-based, human; details: MDA-MB-231, 24 hours, Caspase 3/7 activity
# Protocol: Apoptosis was measured 24 hrs after treatment. […] Measurements were made 24 hours after treatments, and apoptosis was evaluated by fold induction in Caspase 3/7 activity.
# [2] = system: pAkt (Ser 473) in MDA-MB-231 tumor cells; assay: Western blot of pAkt (Ser 473) in MDA-MB-231 tumor cells; details: MDA-MB-231, 24 hours
# Protocol: Cells were treated for 24 hours prior to harvesting lysates. Ctrl=control.
# as §1
# [3] = system: pAkt (serine 473) in ovarian tumor cells; assay: Western blot of pAkt (serine 473) in ovarian cell lines, gemcitabine study (FIG. 11A); format: cell-based, human; details: gemcitabine 1 μM, Compound B 10 μM, rapamycin 10 nM, 24 hours
# Protocol: as §1
# [4] = system: pAkt (Ser 473) in Ovcar3 cells; assay: Western blot of pAkt (Ser 473) in Ovcar3 cells (FIG. 9, 10); format: cell-based, human; details: Ovcar3, 24 hours; 10 nM rapamycin, 10 μM irinotecan
# Source text: FIG. 9. Compound B inhibits irinotecan-induced Akt phosphorylation and enhances irinotecan-induced apoptosis in ovarian tumor cells. […] Phospho-Akt was detected using an antoibody specific to Serine 473. […] Apoptosis is expressed as the fold increase in induction relative to DMSO-treated cells.
# FIG. 10. Compound B inhibits doxorubicin-induced Akt phosphorylation and enhances doxorubicin-induced apoptosis in ovarian tumor cells. […] Phospho-Akt was detected using an antibody specific to Serine 473. […] Apoptosis is expressed as the fold increase in induction relative to DMSO-treated cells.
smiles,measurement,setting,value
CO[C@H]1C[C@@H]2CC[C@@H](C)[C@@](O)(O2)C(=O)C(=O)N2CCCC[C@H]2C(=O)O[C@H]([C@H](C)C[C@@H]2CC[C@@H](O)[C@H](OC)C2)CC(=O)[C@H](C)/C=C(\C)[C@@H](O)[C@@H](OC)C(=O)[C@H](C)C[C@H](C)/C=C/C=C/C=C/1C [Rapamycin],tumor cells tested in which pAKT is induced,pAkt; Table 2,~62%
same,cancer cell lines in which pAkt (S473) is inhibited,pAkt; statement of the description,~20%
same,cell lines in which treatment increases pAkt (S473),pAkt; statement of the description,~65%
same,cell lines in a given tumor type that are insensitive (anti-proliferative activity),tumor cell lines,approximately 50%
N.N.[Cl][Pt][Cl] [cisplatin],"effect on pAkt-S473, single agent",[1],promotes an increase in Akt phosphorylation
COc1cccc2c1C(=O)c1c(O)c3c(c(O)c1C2=O)C[C@@](O)(C(=O)CO)C[C@@H]3O[C@H]1C[C@H](N)[C@H](O)[C@H](C)O1 [doxorubicin],"induction in apoptosis, single agent",MDA-MB-231 cells,no significant induction in apoptosis
same,"effect on pAkt-S473, single agent",[2],promotes an increase in Akt phosphorylation
Nc1ccn([C@@H]2O[C@H](CO)[C@@H](O)C2(F)F)c(=O)n1 [gemcitabine],"effect on Akt phosphorylation (serine 473), single agent",[3],increased Akt phosphorylation on serine 473
CCc1c2c(nc3ccc(OC(=O)N4CCC(N5CCCCC5)CC4)cc13)-c1cc3c(c(=O)n1C2)COC(=O)[C@]3(O)CC [irinotecan],"effect on pAkt levels, single agent",[4],causes an induction in pAkt levels
